In patent US20250195598A1, “FLAVONOID ACTIVE FRACTION OF AN ABELMOSCHI COROLLA, PREPARATION METHOD AND APPLICATION THEREOF” (SUZHONG PHARMACEUTICAL GROUP CO., LTD., priority 2022, published 2025):

Legend:
Kunming mice = assay: bleomycin-induced idiopathic pulmonary fibrosis; format: in vivo; details: HE staining, four grades, 28 days; Rosiglitazone 5 mg/kg, samples 70 mg/kg, Huangkui Capsule 180 mg/kg based on the extract
Description: Experimental animals: 60 Kunming mice, half male and half female, 18 g to 22 g weight, clean grade.
Animal groups: the mice were randomly divided into 6 groups, which comprise a normal group, a model group, a drug control group (5 mg/kg of Rosiglitazone), a sample group prepared by the method of Embodiment 2-A3 (70 mg/kg), a sample group prepared by the method of Embodiment 9.2 (70 mg/kg) and a Huangkui Capsule sample group (180 mg/kg based on the extract), with 10 mice in each group.
Experimental modeling: after 3 days of adaptive feeding, the experimental mice were anesthetized by intraperitoneal injection with 4% chloral hydrate (0.01 ml/g). Taking a supine fixed position, routine disinfection was carried out, a median cervical incision was made, and a trachea was exposed by passive separation. The model group, the control group and the treatment group were slowly injected with bleomycin (5 mg/kg) into a space between tracheal cartilaginous rings, and the normal control group was injected with the same volume of normal saline. The mice were immediately rotated upright for 3 minutes to 5 minutes after the injection, so that the liquid medicine was evenly distributed in both lungs, then skin of the mice was sutured and disinfected at a suture, and the mice after waking were sent to a clean grade observation room for feeding. […]

[1] = compared with the control group; cited from earlier work
MRL/lpr mice = assay: lupus erythematosus nephritis; format: in vivo; details: Dexamethasone 1 mg/kg, Embodiment 2-B 69.9 mg/kg, other samples 87.36 mg/kg
From the text: 26 male MRL/lpr mice (lupus erythematosus nephritis mice) were selected as an observation group 1, with 18 g to 22 g weight and 13 weeks old, which were purchased from Nanjing Junke Bioengineering Co., Ltd., and 24 male C57BL/6 mice were selected as a normal group, with 18 g to 22 g weight and 13 weeks old, which were purchased from Wuhan Hualianke Biotechnology Co., Ltd.
The mice were administrated for 4 weeks.
After administration, 24-hour urine was collected to detect urine protein. After the urine was collected, eyeballs of all the mice were taken for blood collection, and the collected blood was centrifuged to obtain serum for antinuclear antibody detection. Meanwhile, kidneys of the mice were taken out, quickly frozen in liquid nitrogen, and stored in a refrigerator at −80° C. for kidney immune detection.

[2] = test system: diabetic kidney disease model, C57BL/6 mice; assay: streptozotocin (STZ)+high-fat-fed diabetic kidney disease model; format: in vivo; details: samples 62.4 mg/kg, Dapagliflozin tablet 45.5 mg/kg
Description: Administration method: intragastric administration. Experimental modeling: after 3 days of adaptive feeding, the experimental mice were fed with high-fat and high-sugar feed (made by laboratory according to a formula of lard:sucrose:yolk:basic feed=18:20:3:59) for 8 consecutive weeks, and then intraperitoneally injected with an STZ sodium citrate solution according to a dosage of 100 mg/kg for 7 consecutive days. […] When the blood glucose was greater than 13.8 mmol/L, and there were urine protein and renal function abnormality, the modeling was successful. Experimental groups: there were a total of 6 groups, comprising a normal group, a model group, a positive drug group (Dapagliflozin tablet, 45.5 mg/kg), a sample group prepared by the method of Embodiment 2-1 (62.4 mg/kg), a sample group prepared by the method of Embodiment 6 (62.4 mg/kg) and a sample group prepared by the method of Embodiment 8 (62.4 mg/kg), with 15 mice in each group. After 4 weeks of administration, urine protein and urine creatinine were detected, and a daily food intake and a mouse state were calculated.

db/db mice = db/db mice diabetic kidney disease model; format: in vivo; details: samples 62.4 mg/kg, Dapagliflozin tablet 45.5 mg/kg
Description: Animal model: db/db mice, 16 weeks old, and C57 BL/6 mice, 16 weeks old. Administration mode: intragastric administration. Experimental modeling: the db/db mice were raised for 17 weeks, and then urine protein was detected. When there were urine protein and renal function abnormality, the modeling was successful for later experiment. Experimental groups: there were a normal group of the C57 BL/6 mice, a model group of the db/db mice, a positive drug group (Dapagliflozin tablet, 45.5 mg/kg), a sample group prepared by the method of Embodiment 3-1 (62.4 mg/kg), a sample group prepared by the method of Embodiment 9.1 (62.4 mg/kg), and a sample group prepared by the method of Embodiment 2-A3 (62.4 mg/kg). There were 6 groups in total, with 15 mice in each group. After 4 weeks of administration, urine protein, urine creatinine and a daily food intake were detected, and a mouse state was observed.

Brown-Norway rats = assay: ocular blood flow and choroidal neovascularization after krypton laser photocoagulation; format: in vivo; details: intragastric, after 4 weeks; Verteporfin 1.35 mg/kg, Embodiment 2-1 69.9 mg/kg, other samples 87.36 mg/kg
Description: Experimental animals: rats, 150 g to 180 g weight, SPF grade, half male and half female.
(§1) Administration mode: intragastric administration.
Experimental modeling: healthy male Brown-Norway rats were selected and anesthetized by intramuscular injection of ketamine (50 mg/kg), pupils of the rats were dilated with a mixed mydriatic of 0.5% tropicamide and neofolin, and 8 points were photocoagulated between great retinal vessels around an optic disc at a distance 2 to 4 disc diameters away from the optic disc under a 120D special front lens by a krypton yellow laser (Lumenis Company in the United States) (wavelength 568 nm, and parameters: spot diameter […], exposure time 0.1 second, and power 150 mW to 200 mW). […]
(§2) Drug groups and administration dosages: there were a normal group, a model group, a positive control drug group (Verteporfin 1.35 mg/kg), a sample group of Embodiment 2-1 (69.9 mg/kg), a sample group of Embodiment 3.1 (87.36 mg/kg), a sample group of Embodiment 7 (87.36 mg/kg), a sample group of Embodiment 9.1 (87.36 mg/kg) and a sample group of Embodiment 9.2 (87.36 mg/kg, solids prepared according to Embodiment 9.2), with 15 rats in each group. After 4 weeks of administration, an inhibition rate of choroidal blood flow and an area of choroidal neovascularization of eyes were detected.

SD rats = assay: contrast-induced kidney injury; format: in vivo; details: intragastric, 4 weeks; Irbesartan 50 mg/kg/d, samples 69.9 or 87.36 mg/kg (groups of b143 differ from the table)
Description: Experimental animals: SD rats, 200 g to 250 g weight, SPF grade, half male and half female.
as §1
Experimental modeling: healthy male SD rats were selected, intramuscularly injected with furosemide (10 ml/kg) first, and then injected with a prostaglandin synthesis inhibitor (indomethacin, 10 mg/kg, dissolved in dimethyl sulfoxide, and diluted with 1.25% of NAHCO3 solution), a nitric oxide synthase inhibitor (N-nitro-L-arginine-methyl ester hydrochloride, L-NAME, 10 mg/kg, dissolved in 0.9% of NaCl solution) and 76% of meglumine diatrizoate by tail vein every 15 minutes.
In animal models, the increase of serum creatinine exceeding the baseline by 50% was often used as the diagnostic criterion of acute kidney injury, that was, the success criterion of modeling.
as §2, with “(Irbesartan 50 mg/kg/d),” for “(Verteporfin 1.35 mg/kg),”, “mg/kg, the” for “mg/kg,”, “After 4 weeks of administration, an inhibition rate of choroidal blood flow and an area of choroidal neovascularization of eyes were detected.” left out

[3] = compounds having five hydroxyl groups; cited from earlier work

CN(CCOc1ccc(CC2SC(=O)NC2=O)cc1)c1ccccn1 (stereo not drawn) [Rosiglitazone]
Degree of pulmonary alveolitis (Kunming mice): 1.03 ± 0.49
Degree of pulmonary fibrosis (Kunming mice): 1.15 ± 0.81

CCOc1ccc(Cc2cc([C@@H]3S[C@H](CO)[C@@H](O)[C@H](O)[C@H]3O)c(OC)cc2C)cc1 [Luseogliflozin]
serum uric acid level [1]: significantly reduces

OC[C@H]1O[C@@H](c2ccc(Cl)c(Cc3ccc(O[C@H]4CCOC4)cc3)c2)[C@H](O)[C@@H](O)[C@@H]1O [Empagliflozin]
serum uric acid level [1]: significantly reduces

C[C@@H]1C[C@H]2[C@@H]3CCC4=CC(=O)C=C[C@]4(C)[C@@]3(F)[C@@H](O)C[C@]2(C)[C@@]1(O)C(=O)CO [Dexamethasone]
Urine protein (MRL/lpr mice; 24-hour urine after 4 weeks): 11.67 ± 3.45
C3 level of kidney (MRL/lpr mice; kidney tissue after 4 weeks): 1.21 ± 0.67
IgG level of kidney (MRL/lpr mice; kidney tissue after 4 weeks): 1.32 ± 0.67
Logarithm of antinuclear antibody titers (MRL/lpr mice; serum after 4 weeks): 0.81 ± 0.11

CCOc1ccc(Cc2cc([C@@H]3O[C@H](CO)[C@@H](O)[C@H](O)[C@H]3O)ccc2Cl)cc1 [Dapagliflozin tablet, Dapagliflozin]
Urine albumin-to-creatinine ratio ([2]; intragastric, after 4 weeks of administration): 1.04 ± 1.09
Urine protein/mg ([2]; intragastric, after 4 weeks of administration, 15 mice per group): 17.51 ± 12.34 mg
Abdominal distension/number of mice ([2]; of 15 mice per group, 4 weeks): 0 number of mice
Diarrhea/number of mice ([2]; of 15 mice per group, 4 weeks): 0 number of mice
Urine albumin-to-creatinine ratio/ (db/db mice; intragastric, after 4 weeks): 1.17 ± 1.26
Urine protein/mg (db/db mice; intragastric, after 4 weeks): 15.09 ± 10.27 mg
Abdominal distension/number of mice (db/db mice; of 15 mice per group, 4 weeks): 0 number of mice
Diarrhea/number of mice (db/db mice; of 15 mice per group, 4 weeks): 0 number of mice

CCc1ccc(Cc2ccc3c(c2)[C@]2(OC3)O[C@H](CO)[C@@H](O)[C@H](O)[C@H]2O)cc1 [Tofogliflozin]
serum uric acid level [1]: significantly reduces

Cc1ccc([C@@H]2O[C@H](CO)[C@@H](O)[C@H](O)[C@H]2O)cc1Cc1ccc(-c2ccc(F)cc2)s1 [Canagliflozin]
serum uric acid level [1]: significantly reduces

Verteporfin
Area of choroidal angiogenesis/μm^2 (Brown-Norway rats): 19.80 ± 1.23^# μm^2
Ocular choroidal blood flow inhibition ratio (Brown-Norway rats): 87.98 ± 11.23

CCCCC1=NC2(CCCC2)C(=O)N1Cc1ccc(-c2ccccc2-c2nnn[nH]2)cc1 [Irbesartan]
Serum creatinine (SD rats): 16.67 ± 1.23
Serum urea nitrogen (SD rats): 3.01 ± 0.98

O=c1c(O)c(-c2ccc(O)c(O)c2)oc2cc(O)cc(O)c12 [quercetin]
effect on ocular blood flow [3]: negative effect

OC[C@H]1O[C@@H](c2ccc(F)c(Cc3cc4ccccc4s3)c2)[C@H](O)[C@@H](O)[C@@H]1O [Ipragliflozin]
serum uric acid level [1]: significantly reduces
